Measurements: paper PMC11084348, “Characterization of Phenolic Compounds in Extra Virgin Olive Oil from Granada (Spain) and Evaluation of Its Neuroprotective Action” (International Journal of Molecular Sciences, 2024)

How the values were obtained:
[1] = molecular target: T1, COX-2 (Homo sapiens, UniProt P35354); assay: biochemical; settings: 5 concentrations of standard, linear regression of dose-response curve
T1 construct: purchased Merck (Madrid, Spain)
T1 sequence (P35354 18-604): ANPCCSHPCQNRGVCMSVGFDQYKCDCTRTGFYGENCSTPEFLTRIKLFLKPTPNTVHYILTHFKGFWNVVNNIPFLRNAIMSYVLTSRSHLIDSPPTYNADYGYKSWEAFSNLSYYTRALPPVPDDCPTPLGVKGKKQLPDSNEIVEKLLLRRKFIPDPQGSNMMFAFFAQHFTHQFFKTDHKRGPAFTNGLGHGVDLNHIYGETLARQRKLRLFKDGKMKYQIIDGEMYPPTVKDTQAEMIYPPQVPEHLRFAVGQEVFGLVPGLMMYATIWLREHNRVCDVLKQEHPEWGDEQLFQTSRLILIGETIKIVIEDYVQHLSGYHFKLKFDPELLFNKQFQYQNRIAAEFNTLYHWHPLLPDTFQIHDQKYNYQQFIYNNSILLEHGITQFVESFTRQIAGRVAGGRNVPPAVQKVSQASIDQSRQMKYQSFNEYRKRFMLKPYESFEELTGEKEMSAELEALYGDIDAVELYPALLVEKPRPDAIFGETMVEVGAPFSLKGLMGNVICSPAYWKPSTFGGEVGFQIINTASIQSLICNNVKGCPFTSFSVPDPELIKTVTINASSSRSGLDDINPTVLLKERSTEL
Description: For the COX-2 assay, a COX-2 Inhibitor Screening Kit from Merck (Madrid, Spain) was purchased. […] In both assays, a spectrophotometer from BioTek Synergy from Agilent Technologies (Santa Clara, CA, USA) was used.
The COX-2 assay was performed using the COX fluorescent inhibitor assay kit with slight modifications and measured spectrophotometrically (BioTek Synergy, Agilent Technologies, Santa Clara, CA, USA). EVOO extracts were diluted (1/200) in ethanol:water (1:1, v/v). Briefly, the assay was carried out in a 96-well plate, in which 10 μL of diluted EVOO extracts and 80 μL of the reaction mix (containing the cofactor, the probe, and the COX-2 enzyme) were added. […] EVOO extracts were analyzed in duplicate.

[2] = molecular target: T2, acetylcholinesterase from Electrophorus electricus (Electrophorus electricus, UniProt O42275); assay: AChE inhibition assay (Ellman, spectrophotometric); assay type: biochemical; settings: for IC50: 5 concentrations of standard, linear regression of dose-response curve
T2 construct: purchased Merck (Madrid, Spain)
T2 sequence (O42275 24-633): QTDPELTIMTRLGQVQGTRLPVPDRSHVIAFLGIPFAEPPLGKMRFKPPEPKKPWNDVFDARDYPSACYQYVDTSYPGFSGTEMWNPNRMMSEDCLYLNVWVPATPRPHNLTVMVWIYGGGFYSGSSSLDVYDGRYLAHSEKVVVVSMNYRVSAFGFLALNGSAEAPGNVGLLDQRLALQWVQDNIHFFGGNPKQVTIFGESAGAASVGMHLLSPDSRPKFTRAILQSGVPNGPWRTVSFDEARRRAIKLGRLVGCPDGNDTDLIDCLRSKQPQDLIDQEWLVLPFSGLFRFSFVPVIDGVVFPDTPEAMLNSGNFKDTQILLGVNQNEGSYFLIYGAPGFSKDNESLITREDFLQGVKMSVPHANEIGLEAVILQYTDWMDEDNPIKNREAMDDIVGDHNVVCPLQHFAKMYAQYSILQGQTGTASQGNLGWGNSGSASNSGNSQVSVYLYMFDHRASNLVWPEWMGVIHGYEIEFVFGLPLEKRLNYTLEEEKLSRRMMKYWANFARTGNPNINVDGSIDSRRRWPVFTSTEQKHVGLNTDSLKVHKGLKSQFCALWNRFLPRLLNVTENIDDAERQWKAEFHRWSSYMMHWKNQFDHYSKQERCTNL
Source text: For the COX-2 assay, a COX-2 Inhibitor Screening Kit from Merck (Madrid, Spain) was purchased. For the analysis of AChE inhibition, acetylcholinesterase from Electrophorus electricus (lyophilized powder, 500 U), Base Trizma® (99.9% purity), chloridric acid (37%), Ellman Reactive (5,5′-dithiobis-(2-nitrobenzoic) acid, DTNB, 98% purity), acetylthiocholine iodide (≥98% purity), and physostigmine salicylate were purchased from Merck (Madrid, Spain). In both assays, a spectrophotometer from BioTek Synergy from Agilent Technologies (Santa Clara, CA, USA) was used.
AChE inhibitory activity was measured using a spectrophotometric assay described by Ellman et al. with slight modifications. First, in a 96-well plate, the AChE enzyme (10 mU mL^−1) (dissolved in 50 mM Tris-HCl buffer, pH 8.0) was incubated with the DTNB (150 μM) and 12 μL aliquots of the corresponding EVOO extracts in a final reaction volume of 250 μL. In addition, the inhibition control (physostigmine), the standards Ol, Lut, and Hyty, and the positive control of AChE activity (substituting the extracts/standards by the solvent of the extracts: ethanol:water (1:1, v/v) were tested. After 15 min of incubation at 30 °C, the substrate (acetylthiocholine iodide 150 μM, ATCh) was added, and AChE activity was determined by measuring the increase in absorbance reading at 405 nm for 15 min at 30 °C in a spectrophotometer (BioTek Synergy, Agilent Technologies, Santa Clara, CA, USA).
The AChE inhibitory activity of the EVOO extracts was expressed as a percentage of inhibition with respect to the positive activity control, indicating the average value obtained by analyzing the 3 extraction replicates obtained from each EVOO extract and analyzing them in duplicate. IC50, the concentration of a standard bioactive compound capable of inhibiting 50% of AChE activity, was determined by measuring 5 different concentrations of the standard compound in the reaction medium and interpolating in the linear regression of the dosis-response curve.

Compound | IC50 [1] | IC50 [2] | inhibition at 0.025 µM ([2]; 0.025 µM of physostigmin in 250 μL of medium reaction containing 2.5 mU of AChE)
OCCc1ccc(O)c(O)c1 [Hyty, hydroxytyrosol] | 10.8 µM | 328 µM | –
O=c1cc(-c2ccc(O)c(O)c2)oc2cc(O)cc(O)c12 [Lut, luteolin] | – | 145 µM | –
C/C=C1/[C@H](O[C@@H]2O[C@H](CO)[C@@H](O)[C@H](O)[C@H]2O)OC=C(C(=O)OC)[C@H]1CC(=O)OCCc1ccc(O)c(O)c1 [Ol, oleuropein] | 9.65 µM | 417 µM | –
CNC(=O)Oc1ccc2c(c1)[C@]1(C)CCN(C)[C@@H]1N2C [Physostigmin, physostigmine salicylate] | – | – | 48.5 ± 1.69%
